# Data as given in US4015002A, “1-Aryl-2-oxo-2,4,5,6,7,7a-hexahydro-indoles, salts, pharmaceutical compositions and methods of use” (Laboratoire Roger Bellon, priority 1974, dated 1977).
# “Also recorded” adds a separate entry of the source. Read-outs that look alike come from different tables or passages of the source.
# Columns and labels:
# [1] = system: isolated heart of the rabbit; experiment: Cardiac action on the isolated heart of a rabbit (Langendorf preparation); details: for EC20: Oryctolagus cuniculus
# Description: (§1) This was examined according to known methods in the isolated auricle (Trevan preparation) and in the isolated heart of a rabbit (Langendorf preparation).
# In the Langendorf preparation, the action of the compounds was determined from three parameters; the amplitude of contractions, coronary delivery, and rhythm. […] The results are indicated in Table 1; an arrow ↓ indicates a diminution, and an arrow ↑ an augmentation.
# [2] = Toxicity, intravenous in the mouse; details: in vivo, i.v.
# Description: The toxicities of the various compound were determined intravenously in the mouse.
# anaethestized dog = experiment: Action on femoral delivery, aortal pressure and cardiac rhythm in the anaesthetized dog; type: in vivo
# Description: This was investigated in an anaethestized dog, the compounds under test being administered by intraveneous perfusion (over 5 minutes). The various compounds under test were compared by administering all of them at a dose per kilogram corresponding to 1/10 of the mouse LD50 (I.V.).
# Simultaneously were measured: variations of femoral delivery, aortal pressure, and cardiac rhythm. Table II indicates the maximum variations of these different parameters observed over the 30 minutes which followed administration of various compounds. These variations are expressed in percent based on the initial values.
# platelet aggregation = experiment: Platelet aggregation in human blood; type: cell-based
# rat = experiment: Protection against cerebral isochaemial hypoxy in the rat (clamping of carotid and basilar artery, E.E.G.); type: in vivo; details: 5 mg/kg i.v.
# Description: The protective effect of the compound of Example 3 with regard to cerebal isochaemal hypoxy is shown for at least 3 hours after injection.
# dog = experiment: Cardiac isochaemal hypoxy in the dog (Sodi-Pallares preparation); type: in vivo; details: i.v. 10 or 25 mg/kg
# Description: After ligature of the anterior intraventricular coronary artery (Sodi-Pallares preparation), intravenous administration of 10 or 25 mg/kg of the compound of Example 3, increased the strength of cardiac contractions and the ventricular dp/dt return, which reflects a […] in the contractile state of the myocardial fibres.
# cardiovascular system = experiment: Overall action on the cardiovascular system; type: in vivo
# Excerpt: Compounds in accordance with the invention have shown a marked action on the cardiovascular system, particularly as coronary and cerebal peripheral vasodilators. Some of the compounds have also shown activity as hypotensives or hypertensives. […] In these tests, aqueous solutions of the salts described in the cited Examples were used.
# isolated auricle = experiment: Cardiac action on the isolated auricle (Trevan preparation): amplitude of contractions; details: arrows for diminution/increase are drawings, 0 = inactive, read-out: Action on the isolated auricle: minimum concentration producing a variation of 20% in amplitude of contractions
# Description: as §1
# Cardiac action of the compounds in question was evaluated according to the amplitude of contractions of the isolated auricle.
# [3] = Hygroscopicity of the hydrochloride; type: physicochemical; details: hydrochloride salt
# [4] = direction arrow is a drawing, read-out: Amplitude of contractions: concentration producing a variation of 20%
# [5] = i.v. perfusion over 5 min, dose 1/10 of mouse LD50, percent based on initial values
structure (smiles),measurement,setting,value
"O=C1C=C2CCCCC2N1c1ccc(OCCN2CCOCC2)cc1 (stereo not shown) [Example 3, 1-[4-(2-morpholinoethoxy)-phenyl]-2-oxo-2,4,5,6,7,7a-hexahydro-indole]",Coronary delivery (in words),[1],did not modify coronary rhythm or augment coronary delivery
same,Coronary rhythm (in words),[1],did not modify coronary rhythm
same,EC20,"[1]; augmentation, read-out: Concentration providing an augmentation of 20% in the amplitude of contractions",10 µg/mL
same,EC20,[1]; [4],10 µg/mL
same,EC20,"[1]; direction arrow is a drawing, read-out: Coronary delivery: concentration producing a variation of 20%",20 µg/mL
same,LD50,[2],225 mg/kg
same,Aortal pressure (in words),"anaethestized dog; anaesthetized dog, i.v.",without modifying aortal pressure; also recorded: without changes in aortal pressure
same,Cardiac frequency (in words),"anaethestized dog; anaesthetized dog, i.v.",without modifying aortal pressure or cardiac frequency
same,Vasodilator action (in words),"anaethestized dog; anaesthetized dog, i.v., 1/10 of mouse LD50",clearly vasodilators
same,Aortal pressure (in words),"anaethestized dog; anaesthetized dog, i.v., listed as Example 4",without changes in aortal pressure
same,"Aortal pressure, maximum variation in 30 minutes",anaethestized dog; [5],0%
same,Inhibition of platelet aggregation induced by A.D.P.,"platelet aggregation; 1 × 10^-5 (unit not given), A.D.P. 5 mM/l",inhibited platelet aggregation
same,Inhibition of platelet aggregation induced by collagen,"platelet aggregation; 1 × 10^-5 (unit not given), collagen 200 mg/cm^3",inhibited platelet aggregation
same,Inhibition of platelet aggregation induced by adrenalin,"platelet aggregation; 2 × 10^-4 M, adrenalin 2.5 mcM/l",inhibited platelet aggregation
same,Protection with regard to cerebral isochaemial hypoxy,rat,marked protecting properties
same,Delay in the appearance of electrical silence in the E.E.G.,rat; after beginning of clamping,significantly increased
same,Duration of protective effect with regard to cerebral hypoxy,rat; after injection,at least 3 hours
same,Delay in normalization of the E.E.G. trace,rat; after removal of the clamps,significantly reduced
same,Period of electrical silence of the E.E.G.,rat; during clamping and after removal of clamps,significantly reduced
same,Protection with regard to cardiac isochaemal hypoxy,dog,showed protective properties
same,Strength of cardiac contractions,dog; after coronary artery ligature,increased
same,Ventricular dp/dt return,dog; after coronary artery ligature,increased
same,Action on the cardiovascular system (in words),cardiovascular system; aqueous solutions of the salts,"vasodilators, this action being shown on coronary delivery, femoral delivery and vertebral delivery"
same,Cardiac frequency on increase in amplitude of cardiac contractions (in words),cardiovascular system; in vivo,modified and transitory increase in cardiac frequency
"CN(C)CCOc1ccc(N2C(=O)C=C3CCCCC32)cc1Cl (stereo not shown) [Example 15, 1-[3-chloro-4-(2-dimethylaminoethoxy)-phenyl]-2-oxo-2,4,5,6,7,7a-hexahydro-indole]",EC20,isolated auricle,5 µg/mL
same,EC20,[1]; [4],1 µg/mL
same,EC20,"[1]; direction arrow is a drawing, read-out: Rhythm: concentration producing a variation of 20%",1 µg/mL
same,LD50,[2],15 mg/kg
same,"Aortal pressure, maximum variation in 30 minutes",anaethestized dog; [5],0%
same,"Cardiac Rhythm, maximum variation in 30 minutes",anaethestized dog; [5],0%
same,Hygroscopicity,[3],hygroscopic and absorbed 1/2 mol of water from the air
